Eight compounds from paper PMC12242654, “Design, Synthesis, and In Vitro Evaluation of the Leishmanicidal Activity of New Aromatic Symmetrical 1,4-Disubstituted 1,2,3-Bistriazoles” (ACS Omega, 2025) can be followed below.

As a reminder, the IC50 is the concentration at which inhibition is half-maximal. What is called CC50 is the concentration that lowers cell viability or growth by half.

Like-named read-outs stand apart in the source and are kept apart here.

In series [1] the test system is promastigote forms of L. amazonensis. As to the kind of experiment: Leishmanicidal activity against promastigote forms of L. amazonensis (resazurin). Conditions: L. amazonensis promastigotes, 72 h, read-out: IC50 ± SD promastigote. The series is classed as cell-based, Leishmania amazonensis. Here is the method:
Promastigotes of L. amazonensis (MHOM/BR/71973/M2269) were grown on 24-well plates in Schneider’s Drosophila medium (Sigma, USA) supplemented with 10.0% (v/v) heat-inactivated fetal bovine serum and 1.0% penicillin (10000 UI mL^–1)/streptomycin (10.0 mg mL^–1) (Sigma, USA). Cells were harvested in the log phase, suspended in a fresh medium, counted in Neubauer’s chamber, and adjusted to a concentration of 1 × 10^6 cells mL^–1 using 24-well plates. The compounds were added to promastigote cultures (1 × 10^6 cells mL^–1) in the range of 0.10–40.00 μg mL^–1, solubilized in dimethyl sulfoxide (DMSO) (0.6%, v/v in all wells), and incubated at 25 °C. After 72 h of incubation, resazurin was used to detect cellular metabolic activity for the determination of 50.0% inhibitory growth concentration (IC50-promastigote). All tests were performed in triplicate at three different times, and amphotericin B (Sigma) was used as the reference drug.

A short description of series [2]: Murine cytotoxicity by MTT method. Format: cell-based. The following applies: mouse; murine peritoneal macrophages, MTT; read-out: murine macrophage CC50 ± SD. Here is the method:
(§1) Murine cytotoxicity was assessed by the 3-(4,5-dimethylthiazol-2-yl)-2,5-diphenyltetrazolium bromide (MTT) method using murine peritoneal macrophages to determine the CC50. For this purpose, murine peritoneal macrophages were maintained in RPMI 1640 medium at 37 °C and 5% CO2, arranged in 96-well plates at a ratio of […], where the compounds to be evaluated were added at concentrations of 500, 250, 125, 62.5, 31.25, 15.625, 7.8125, and 3.90 μg mL^–1 and incubated for 24, 48, and 72 h. After incubation, 10 μL of MTT (at a concentration of 5 mg mL^–1) was added per well, with a further 4 h incubation. The cells were lysed with dimethyl sulfoxide (DMSO) and evaluated in a Shimadzu UV/vis spectrophotometer (double beam, model 2550) at 570 nm to determine the CC50 compared to the control without the addition of compounds or drugs. , The optical density obtained was then converted to the percentage of inhibition using eq so that the CC50 could then be determined by regression analysis of the data. %inhibition=[(DOcontrol−DOcompound)/DOcontrol]×100 1
(§2) The percentage of viable cells was calculated considering the cell culture control (medium + cells + DMSO = 0.6% v/v).

For series [3], the system named is murine peritoneal macrophages. As to the kind of experiment: Murine cytotoxicity by MTT method. Format: cell-based. Here is the method:
as §1, §2

Series [4] relates to amastigote forms of L. amazonensis. As to the kind of experiment: Leishmanicidal activity against intracellular amastigote forms of L. amazonensis in murine peritoneal macrophages. The series is classed as cell-based. The following applies: Leishmania amazonensis, Peritoneal macrophage; intracellular amastigotes in murine peritoneal macrophages, 72 h, Giemsa; read-out: IC50 ± SD amastigote. Here is the method: To evaluate the leishmanicidal activity in amastigotes, murine peritoneal macrophages were used and maintained in RPMI-1640 medium at 37 °C and 5% CO2 in 24-well plates. After 24 h, the nonadherent macrophages were removed, and these cells were infected with Leishmania (L.) amazonensis promastigotes in the stationary phase of the proliferation curve at a ratio of 10:1. The day after infection, the noninternalized parasites were removed, and the compounds to be evaluated were added at concentrations of 40, 10, 5, and 0.1 μg mL^–1 and incubated for 72 h at 37 °C and 5% CO2; they were then fixed in methanol and stained with 10% Giemsa (MERCK) for subsequent analysis by light microscopy. To assess the effect of the compounds, the number of amastigotes/macrophages and the number of infected macrophages were evaluated. The percentage of infected cells was considered to illustrate the results since these are expressed as CI50-amastigote. ,

The nature of series [5]: Cytotoxicity on human fibroblast culture (sulforodamine B (SRB) test). Format: cell-based. Conditions: read-out: human fibroblasts CC50 ± SD.

For the compound `OC(c1ccccc1)c1cn(Cc2ccccc2)nn1` (centres unmarked) [compound 4], the IC50 in series [1] (Leishmania amazonensis) is 42.8 ± 2.66 µM. Further, the CC50 in series [2] was found to be 322 ± 10.4 µM.
Consider `OC(Cn1cc(C(O)c2ccccc2)nn1)Cn1cc(C(O)c2ccccc2)nn1` (centres unmarked) [compound 9, ((2-Hydroxypropane-1,3-diyl)bis(1H-1,2,3-triazole-1,4-diyl))bis(phenylmethanol)], for which the IC50 in series [1] (Leishmania amazonensis) amounted to 62.3 ± 3.29 µM. The CC50 in series [2] is 144.3 ± 0.94 µM.
For the compound “N′,N‴-(((2-Hydroxypropane-1,3-diyl)bis(1H-1,2,3-triazole-1,4-diyl))bis(phenylmethaneylylidene))di(benzohydrazide) [12b]”, in series [1], the IC50 was determined as 34.46 ± 0.28 µM. For the same compound, the midpoint of cytotoxicity in series [3], the CC50, lay at 118 ± 17.1 µM.
In the case of `OC(Cn1cc(C(=NNc2nc3ccccc3s2)c2ccccc2)nn1)Cn1cc(C(=NNc2nc3ccccc3s2)c2ccccc2)nn1` (centres unmarked) [12c, 1,3-Bis(4-((2-(benzo[d]thiazol-2-yl)hydrazineylidene)(phenyl)methyl)-1H-1,2,3-triazol-1-yl)propan-2-ol], the IC50 in series [1] (Leishmania amazonensis) was determined as 19.2 ± 1.4 µM. In series [2], the CC50 was found to be 51.3 ± 8.57 µM.
In the case of `Cc1ccc(-c2cn(CC(O)Cn3cc(-c4ccc(C)cc4)nn3)nn2)cc1` [8c, 1,3-Bis(4-(p-tolyl)-1H-1,2,3-triazol-1-yl)propan-2-ol], the IC50 in series [1] (Leishmania amazonensis) worked out at 116 ± 2.61 µM. In series [2], the CC50 stood at 282.2 ± 1.65 µM.
`O=[N+]([O-])c1ccc(-c2cn(CC(O)Cn3cc(-c4ccc([N+](=O)[O-])cc4)nn3)nn2)cc1` [8b, 1,3-Bis(4-(4-nitrophenyl)-1H-1,2,3-triazol-1-yl)propan-2-ol]: the IC50 in series [1] (Leishmania amazonensis) came to 48.4 ± 1.3 µM. For the same compound, in series [2], the CC50 was found to be 305 ± 7.84 µM.
In the case of `C[C@@H]1[C@H](O)[C@@H](C)/C=C/C=C/C=C/C=C/C=C/C=C/C=C/[C@H](O[C@@H]2O[C@H](C)[C@@H](O)[C@H](N)[C@@H]2O)C[C@@H]2O[C@](O)(C[C@@H](O)C[C@@H](O)[C@H](O)CC[C@@H](O)C[C@@H](O)CC(=O)O[C@H]1C)C[C@H](O)[C@H]2C(=O)O` [amph B, amphotericin B, reference compound], the results for the half-maximal inhibitory concentration (IC50) in series [1] (Leishmania amazonensis) and in series [4] were 1.4 ± 0.04 µM and 1.9 ± 0.07 µM, respectively. In addition, the CC50 in series [2] is 27.1 ± 3.19 µM; in series [5] it was 22.95 ± 0.1 µM.
As for `O=C(c1ccccc1)c1cn(CC(O)Cn2cc(C(=O)c3ccccc3)nn2)nn1` [compound 10, ((2-Hydroxypropane-1,3-diyl)bis(1H-1,2,3-triazole-1,4-diyl))bis(phenylmethanone)], the IC50 in series [1] (Leishmania amazonensis) turned out to be 44.1 ± 2.36 µM; in series [4], 68.4 ± 2.61 µM. For the same compound, the CC50 in series [2] is 383.9 ± 3.21 µM; in series [5] it was 568.1 ± 2.58 µM.
